Assay: method code SF-HPLC, from DOI: 10.1016/j.ejmech.2014.10.073, PMID: 25462263
Conditions: pH 7.4

Row | logD | SMILES
1 | 2.83 | CCN(CC)C(=O)COc1ccc(CC(=O)OCCC(F)(F)F)c(OC)c1F
2 | 2.59 | CCOc1cc(CC(=O)OC(C)C)c(F)cc1OCC(=O)N(CC)CC
3 | 2.29 | CCOC(=O)Cc1ccc(OCC(=O)N(CC)CC)c(F)c1OC
4 | 2.9 | CCOc1cc(CC(=O)OCC(F)(F)F)c(F)cc1OCC(=O)N(CC)CC
5 | 2.46 | CCOc1cc(CC(=O)OC(C)C)cc(F)c1OCC(=O)N(CC)CC
6 | 3.1 | CCOc1cc(CC(=O)OCCC(F)(F)F)cc(F)c1OCC(=O)N(CC)CC
7 | 3.06 | CCOc1cc(CC(=O)OCCC(F)(F)F)c(F)cc1OCC(=O)N(CC)CC
8 | 2.51 | CCN(CC)C(=O)COc1c(F)cc(CC(=O)OCC(F)(F)F)cc1OC
9 | 2.81 | CCN(CC)C(=O)COc1c(F)cc(CC(=O)OCCC(F)(F)F)cc1OC
10 | 2.78 | CCOc1cc(CC(=O)OCC(F)(F)F)cc(F)c1OCC(=O)N(CC)CC
11 | 2.63 | CCCOC(=O)Cc1cc(F)c(OCC(=O)N(CC)CC)c(OCC)c1
12 | 2.94 | CCN(CC)C(=O)COc1cc(F)c(CC(=O)OCCC(F)(F)F)cc1OC
13 | 2.49 | CCN(CC)C(=O)COc1cc(F)c(CC(=O)OCC(F)(F)F)cc1OC
14 | 3.03 | CCOc1cc(CC(=O)OCC(C)C)c(F)cc1OCC(=O)N(CC)CC
15 | 2.95 | CCCOc1cc(CC(=O)OC(C)C)c(F)cc1OCC(=O)N(CC)CC
16 | 2.41 | CCOC(=O)Cc1cc(F)c(OCC(=O)N(CC)CC)c(OCC)c1
17 | 2.72 | CCCOC(=O)Cc1cc(OCC)c(OCC(=O)N(CC)CC)cc1F
18 | 2.36 | CCCOC(=O)Cc1cc(OC)c(OCC(=O)N(CC)CC)cc1F
19 | 2.07 | CCOC(=O)Cc1cc(OC)c(OCC(=O)N(CC)CC)cc1F
20 | 2.19 | CCN(CC)C(=O)COc1cc(F)c(CC(=O)OC(C)C)cc1OC
21 | 2.57 | CCOC(=O)Cc1cc(OCC)c(OCC(=O)N(CC)CC)cc1F

Row | SMILES | logD
22 | CCCOC(=O)Cc1ccc(OCC(=O)N(CC)CC)c(OC)c1 | 2.6
23 | CCCOC(=O)Cc1ccc(OCC(=O)N(CC)CC)c(OCC)c1 | 2.67

From the SangsterLogP compilation
